Reference: US6825172B2, “3-descladinosyl-6-O-carbamoyl and 6-O-carbonoyl macrolide antibacterial agents” (Janssen Pharmaceutica, NV, priority 2002, dated 2004)
In brackets after ≈: the same amount, converted by molar mass.

Key:
Assay in all cases: MIC, microdilution broth method (NCCLS)
Assay type in all cases: cell-based
E. coli OC2605 = conditions: Escherichia coli, Table 2, 3,6-Dicarbamoyl Macrolide Derivatives, read-out: MIC Values, A: E. coil OC2605
Procedure, shortened: (§1)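 NCCLS M7-A4 broth microdilution: two-fold drug dilutions in cation-adjusted Mueller-Hinton broth, inoculum approximately 5×10^4 CFU/well. Trays incubated at 35 °C for 16-20 hours. MIC read by comparing growth to compound-free growth controls.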

E. faecalis ATCC29212 = conditions: Enterococcus faecalis, Table 2, 3,6-Dicarbamoyl Macrolide Derivatives, read-out: MIC Values, C: E. faecalis ATCC29212
Procedure, shortened: as §1

H. influenzae ATCC49247 = conditions: Haemophilus influenzae, Table 2, 3,6-Dicarbamoyl Macrolide Derivatives, read-out: MIC Values, E: H. influenzae ATCC49247
Procedure, shortened: as §1

S. aureus ATCC29213 = conditions: Staphylococcus aureus, Table 2, 3,6-Dicarbamoyl Macrolide Derivatives, read-out: MIC Values, B: S. aureus ATCC29213
Procedure, shortened: as §1

S. pneumoniae ATCC49619 = conditions: Streptococcus pneumoniae, Table 2, 3,6-Dicarbamoyl Macrolide Derivatives, read-out: MIC Values, D: S. pneumoniae ATCC49619
Procedure, shortened: as §1

**Q.** How did the MIC (E. coli OC2605) turn out when `CC[C@H]1OC(=O)[C@H](C)[C@@H](OC(=O)N(CC)CCO)[C@H](C)[C@@H](O[C@@H]2O[C@H](C)C[C@H](N(C)C)[C@H]2O)[C@](C)(OC(=O)NC/C=C/c2ccc(-c3ncccn3)cc2)C[C@@H](C)C(=O)[C@H](C)[C@H]2NC(=O)O[C@@]21C` [Compound 66] was run?
**A.** > 16 µg/mL

**Q.** What about the MIC (E. faecalis ATCC29212) of the same compound?
**A.** 2 µg/mL (≈ 2.1 µM)

**Q.** What about the MIC (H. influenzae ATCC49247) of the same compound?
**A.** 16 µg/mL (≈ 16.8 µM)

**Q.** And the MIC (S. aureus ATCC29213)?
**A.** 4 µg/mL (≈ 4.2 µM)

**Q.** What about the MIC (S. pneumoniae ATCC49619) of the same compound?
**A.** 0.25 µg/mL (≈ 0.262 µM)

**Q.** With `CC[C@H]1OC(=O)[C@H](C)[C@@H](OC(=O)N2Cc3cccnc3C2)[C@H](C)[C@@H](O[C@@H]2O[C@H](C)C[C@H](N(C)C)[C@H]2O)[C@](C)(OC(=O)NC/C=C/c2ccc(-c3ncccn3)cc2)C[C@@H](C)C(=O)[C@H](C)[C@H]2NC(=O)O[C@@]21C` [Compound 67] as the compound, how does the MIC (E. coli OC2605) read?
**A.** > 16 µg/mL

**Q.** And the MIC (E. faecalis ATCC29212)?
**A.** 0.5 µg/mL (≈ 0.508 µM)

**Q.** What about the MIC (H. influenzae ATCC49247) of the same compound?
**A.** 8 µg/mL (≈ 8.13 µM)

**Q.** What about the MIC (S. aureus ATCC29213) of the same compound?
**A.** 0.5 µg/mL (≈ 0.508 µM)

**Q.** And the MIC (S. pneumoniae ATCC49619)?
**A.** 0.06 µg/mL (≈ 0.061 µM)
